# Results taken from US20240269073A1, “CO-AMORPHOUS FORMS FOR USE IN CANCER THERAPY” (Zerion Pharma APS, priority 2021, published 2024).
# Key:
# [1] = equivalent glucocorticoid dose; cited from earlier work
# prostate cancer = conditions: cited from earlier work
# high-risk mCSPC = conditions: cited from earlier work
# [2] = cited from earlier work
# [3] = cited from earlier work; remark: listed apart in the source
# [4] = test system: prostate cancer with mutations in DNA repair genes; conditions: cited from earlier work
# [5] = Chemical compatibility of Olaparib with prednisolone on storage; assay type: physicochemical; conditions: Olaparib and Prednisolone combined, 1 month in sealed containers at 40° C. and 75% RH
# Description: An experiment was carried out to determine whether Olaparib is chemically compatible with prednisolone, both alone and in the co-amorphous form.
# [6] = test system: plasma proteins, primarily albumin; conditions: cited from earlier work
compound,measurement,setting,value
C[C@]12CCC(=O)C=C1CC[C@@H]1[C@@H]2[C@@H](O)C[C@@]2(C)[C@H]1CC[C@]2(O)C(=O)CO [Hydrocortisone],Equivalent amount,[1],20 mg
C[C@]12C=CC(=O)C=C1CC[C@H]1[C@@H]3C[C@@H](O)[C@](O)(C(=O)CO)[C@@]3(C)C[C@H](O)[C@@]12F [Triamcinolone],Equivalent amount,[1],4 mg
"CC(=O)O[C@H]1CC[C@@]2(C)C(=CC[C@@H]3[C@@H]2CC[C@]2(C)C(c4cccnc4)=CC[C@@H]32)C1 [Abiraterone acetate, [(3S,8R,9S,10R,13S,14S)-10,13-dimethyl-17-pyridin-3-yl-2,3,4,7,8,9,11,12,14,15-decahydro-1H-cyclopenta[a]phenanthren-3-yl] acetate]",HR for survival vs ADT-alone group,prostate cancer; P<0.001,0.63
same,3-year survival rate,prostate cancer; in vivo,83%
same,mOS,high-risk mCSPC; 1000 mg daily with prednisone 5 mg twice daily and GnRH agonist/antagonist,53.3 months
same,mPFS,high-risk mCSPC; 1000 mg daily with prednisone and GnRH agonist/antagonist,33.0 months
same,HR for mPFS vs placebo group,"high-risk mCSPC; 95% CI, 0.39-0.55, P<0.001",0.47
same,HR for mOS vs placebo arm,high-risk mCSPC; P<0.001,0.62
same,water solubility,[2],less than 1 mg/mL
O=C(c1cc(Cc2n[nH]c(=O)c3ccccc23)ccc1F)N1CCN(C(=O)C2CC2)CC1 [Olaparib],administered dose recovered,"[3]; after 7 days, total",approximately 86%
same,administered dose found in urine,[3]; after 7 days,44%
same,administered dose obtained in feces,[3]; after 7 days,42%
same,AUC,[3]; after a dose of 200 mg,25.8 µg·h/mL
same,increase of AUC with constant administration,[3]; constant administration,26%
same,time to peak concentration,[3]; following oral administration,1 to 3 h
same,effect of high-fat diet on peak concentration,[3]; high-fat diet,does not have an effect in the peak concentration
same,effect of high-fat diet on tmax,[3]; high-fat diet,can decrease the tmax
same,"unchanged form, share of the circulating dose",[3]; in vivo,70%
same,water solubility,[2],about 0.06 mg/mL
same,median time lived without evidence of cancer getting worse,"[4]; cohort A (BRCA1, BRCA2 or ATM alterations)",7.4 months
same,improvement of survival versus control,"[4]; cohort A, versus abiraterone or enzalutamide",more than 4 months
same,overall survival,[4]; cohort A,19.1 months
same,tumor response (tumors shrink),[4]; in vivo,33%
same,Degradation on combined storage,[5],No degradations
CC(=O)OCC(=O)[C@@]1(O)CC[C@H]2[C@@H]3CCC4=CC(=O)CC[C@]4(C)[C@H]3C(=O)C[C@@]21C [Cortisone acetate],Equivalent amount,[1],25 mg
C[C@]12C=CC(=O)C=C1CC[C@@H]1[C@@H]2[C@@H](O)C[C@@]2(C)[C@H]1CC[C@]2(O)C(=O)CO [Prednisolone],Equivalent amount,[1],5 mg
same,Degradation on combined storage,[5],No degradations
CC1(C)C(=O)N(c2ccc(C#N)c(C(F)(F)F)c2)C(=S)N1c1ccc(C(N)=O)c(F)c1 [N-desmethyl enzalutamide],bound to plasma proteins,[6],95%
C[C@@H]1C[C@H]2[C@@H]3C[C@H](F)C4=CC(=O)C=C[C@]4(C)[C@H]3[C@@H](O)C[C@]2(C)[C@@]1(O)C(=O)CO [Paramethasone],Equivalent amount,[1],2 mg
"CNC(=O)c1ccc(N2C(=S)N(c3ccc(C#N)c(C(F)(F)F)c3)C(=O)C2(C)C)cc1F [Enzalutamide, 4-[3-[4-cyano-3-(trifluoromethyl)phenyl]-5,5-dimethyl-4-oxo-2-sulfanylideneimidazolidin-1-yl]-2-fluoro-N-methylbenzamide]",water solubility,[2],less than 1 mg/mL
